Reference: article PMC7044277 (Nature Communications, 2020)
Several values for one entry are separate records, joined by “and”; a condition that tells them apart may be missing. Identical values can stand only once.

How the values were obtained:
[1] = target: DRD3 F1063.28A (Homo sapiens, UniProt P35462, F106A); test: biochemical; type: binding
[2] = target: T1, DRD4 (D4.4 variant) (Homo sapiens, UniProt P21917); test: Gαi/o-mediated cAMP inhibition (GloSensor); type: cell-based; details: DRD4; agonist, cAMP inhibition; read-out: EC50 ± SEM
T1 sequence (P21917 1-419): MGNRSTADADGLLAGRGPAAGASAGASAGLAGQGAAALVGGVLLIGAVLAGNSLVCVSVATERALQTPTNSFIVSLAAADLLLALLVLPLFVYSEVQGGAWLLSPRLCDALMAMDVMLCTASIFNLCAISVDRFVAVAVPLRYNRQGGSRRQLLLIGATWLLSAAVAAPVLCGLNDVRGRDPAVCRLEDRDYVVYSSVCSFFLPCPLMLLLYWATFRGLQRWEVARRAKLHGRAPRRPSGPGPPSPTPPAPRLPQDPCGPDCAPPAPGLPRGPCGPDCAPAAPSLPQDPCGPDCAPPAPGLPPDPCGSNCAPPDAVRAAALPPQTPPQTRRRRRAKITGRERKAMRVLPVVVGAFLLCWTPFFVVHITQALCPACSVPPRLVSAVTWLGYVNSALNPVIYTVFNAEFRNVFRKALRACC

[3] = target: T2, DRD2 F1103.28L (Homo sapiens, UniProt P14416, F110L); test: Gαi/o-mediated cAMP inhibition (GloSensor), mutant; type: cell-based
T2 construct: expressed in transfected cells; host or cells: HEK293T (ATCC CRL-11268)

[4] = target: 5HT1E (Homo sapiens, UniProt P28566); test: β-arrestin2 recruitment (Tango); type: cell-based; details: Fig_S10i
[5] = target: T3, 5HT6 (Homo sapiens, UniProt P50406); test: β-arrestin2 recruitment (Tango); type: cell-based; details: Fig_S10p, agonist mode
T3 construct: expressed in transfected cells; host or cells: HTLA cells expressing TEV-fused β-arrestin2

[6] = target: T4, 5HT7A (Homo sapiens, UniProt P34969); test: β-arrestin2 recruitment (Tango); type: cell-based; details: for β-arrestin2 recruitment response, replicate points of concentration-response curve: Fig_S10q, agonist mode
T4 construct: expressed in transfected cells; host or cells: HTLA cells expressing TEV-fused β-arrestin2
T4 sequence (P34969 1-445 isoform P34969-2): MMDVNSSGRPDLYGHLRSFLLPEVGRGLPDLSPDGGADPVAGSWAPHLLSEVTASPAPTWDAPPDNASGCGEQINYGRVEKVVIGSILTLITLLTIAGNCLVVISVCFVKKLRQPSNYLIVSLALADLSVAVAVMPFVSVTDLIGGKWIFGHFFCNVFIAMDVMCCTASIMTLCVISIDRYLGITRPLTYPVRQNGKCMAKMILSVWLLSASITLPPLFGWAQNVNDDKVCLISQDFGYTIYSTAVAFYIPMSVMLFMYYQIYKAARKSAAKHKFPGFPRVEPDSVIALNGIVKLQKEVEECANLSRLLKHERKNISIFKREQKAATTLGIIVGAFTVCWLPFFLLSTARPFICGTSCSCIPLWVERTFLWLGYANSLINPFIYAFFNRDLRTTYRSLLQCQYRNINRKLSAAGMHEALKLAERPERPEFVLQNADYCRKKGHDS

T3 sequence (P50406 whole entry, the tested form may be a part): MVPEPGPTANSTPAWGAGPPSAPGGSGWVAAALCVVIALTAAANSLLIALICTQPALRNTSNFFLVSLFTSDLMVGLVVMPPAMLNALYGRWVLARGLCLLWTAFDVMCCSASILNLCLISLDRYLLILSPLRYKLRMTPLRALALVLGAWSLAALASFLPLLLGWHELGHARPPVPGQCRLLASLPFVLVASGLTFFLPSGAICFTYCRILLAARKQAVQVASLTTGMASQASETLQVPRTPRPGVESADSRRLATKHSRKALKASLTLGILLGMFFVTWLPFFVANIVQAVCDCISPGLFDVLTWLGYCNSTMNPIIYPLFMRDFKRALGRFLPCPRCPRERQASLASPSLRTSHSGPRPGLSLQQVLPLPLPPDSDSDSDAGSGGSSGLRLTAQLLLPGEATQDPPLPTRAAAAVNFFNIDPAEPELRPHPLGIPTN
5HT1E, sequence (P28566 whole entry): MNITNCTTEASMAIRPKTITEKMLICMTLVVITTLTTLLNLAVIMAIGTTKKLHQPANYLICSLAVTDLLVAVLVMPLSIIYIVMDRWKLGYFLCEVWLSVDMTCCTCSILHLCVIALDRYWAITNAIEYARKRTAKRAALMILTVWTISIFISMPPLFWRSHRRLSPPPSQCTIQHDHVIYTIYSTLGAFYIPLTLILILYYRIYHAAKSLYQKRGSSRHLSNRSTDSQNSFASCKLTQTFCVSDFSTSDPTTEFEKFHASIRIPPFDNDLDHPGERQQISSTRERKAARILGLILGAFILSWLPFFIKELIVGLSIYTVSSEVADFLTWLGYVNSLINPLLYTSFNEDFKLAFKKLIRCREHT
T2 sequence (P14416 whole entry F110L): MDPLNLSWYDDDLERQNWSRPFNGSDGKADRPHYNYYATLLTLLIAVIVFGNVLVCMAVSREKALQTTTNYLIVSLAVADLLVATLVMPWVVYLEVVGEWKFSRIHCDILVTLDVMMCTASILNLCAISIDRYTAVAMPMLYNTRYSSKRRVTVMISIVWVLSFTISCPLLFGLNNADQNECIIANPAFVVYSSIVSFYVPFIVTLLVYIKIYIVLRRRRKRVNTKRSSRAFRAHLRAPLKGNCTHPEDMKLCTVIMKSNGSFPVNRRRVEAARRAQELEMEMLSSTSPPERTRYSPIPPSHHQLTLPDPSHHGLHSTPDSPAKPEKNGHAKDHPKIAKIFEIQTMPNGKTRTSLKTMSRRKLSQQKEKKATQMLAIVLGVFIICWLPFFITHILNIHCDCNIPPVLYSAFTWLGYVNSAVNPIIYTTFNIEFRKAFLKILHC
DRD3 F1063.28A, sequence (P35462 whole entry F106A): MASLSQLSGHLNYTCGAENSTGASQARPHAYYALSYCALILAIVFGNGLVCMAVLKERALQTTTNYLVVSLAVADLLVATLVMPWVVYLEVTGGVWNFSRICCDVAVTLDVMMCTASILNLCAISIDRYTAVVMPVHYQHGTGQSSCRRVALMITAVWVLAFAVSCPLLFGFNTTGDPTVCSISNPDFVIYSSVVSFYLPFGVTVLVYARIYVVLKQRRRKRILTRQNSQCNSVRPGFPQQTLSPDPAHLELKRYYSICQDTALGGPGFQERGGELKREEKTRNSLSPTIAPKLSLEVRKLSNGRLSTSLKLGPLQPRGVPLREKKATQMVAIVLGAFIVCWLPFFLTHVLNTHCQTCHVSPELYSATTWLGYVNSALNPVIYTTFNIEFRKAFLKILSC

What does the source list for `CCOc1cccc2cc([C@@H](C)NCC3(O)CCCCC3)oc12` [O4RE6]?
Ki [1]: 1050 nM; EC50 [2]: > 10000 nM; EC50 ([3]; DRD2 F1103.28L (b138 head prints DRD2 F1063.28L)): 1.24 ± 0.75 nM; Emax ([3]; read-out: Emax relative to quinpirole response, DRD2 F1103.28L): 56.4%; β-arrestin2 recruitment response, agonist mode (single replicate values) ([4]; Log[Drug] -5.52): -0.8838; β-arrestin2 recruitment response, agonist mode (single replicate values) ([4]; Log[Drug] -6): 5.169 and -3.421 and -7.045 and -2.335 and -9.923 and 2.004 and -14.6813 and -14.4526 and -10.0186; β-arrestin2 recruitment response, agonist mode (single replicate values) ([4]; Log[Drug] -6.52): 5.136 and -8.797 and -1.582 and 6.94 and -5.772 and 9.5977 and -9.147 and -14.4969 and -14.6019; β-arrestin2 recruitment response, agonist mode (single replicate values) ([4]; Log[Drug] -7): -9.403 and -3.356 and -7.031 and 6.361 and -8.019 and 5.611 and -6.317 and -9.482 and -17.1569; β-arrestin2 recruitment response, agonist mode (single replicate values) ([4]; Log[Drug] -7.52): -7.7314 and -4.654 and -9.0776 and 5.71 and 2.776 and -4.782 and -16.2446 and -11.396 and -8.341; β-arrestin2 recruitment response, agonist mode (single replicate values) ([4]; Log[Drug] -8): -0.303 and 2.682 and 0.8105 and -16.5035 and -1.474 and 1.2682 and -16.075 and -2.697 and -15.9171; β-arrestin2 recruitment response, agonist mode (single replicate values) ([4]; Log[Drug] -8.52): -6.877 and -0.9842 and -10.6793 and 4.799 and 9.189 and -4.891 and 2.59 and -7.1 and -6.491; β-arrestin2 recruitment response, agonist mode (single replicate values) ([4]; Log[Drug] -9): -3.28 and 6.173 and 0.4053 and -14.2337 and -0.6567 and 5.487 and -22.7397 and -14.6836 and -5.277; β-arrestin2 recruitment response, agonist mode (single replicate values) ([4]; Log[Drug] -9.52): -0.2537 and -8.594 and -3.456 and -0.4529 and -8.792 and -9.322 and -17.3288 and -4.524 and -7.744; β-arrestin2 recruitment response, agonist mode (single replicate values) ([4]; Log[Drug] -10): -3.52 and -2.38 and 3.183 and -31.9257 and 29.8123 and -9.337 and -10.0295 and -4.283 and -12.1769; β-arrestin2 recruitment response, agonist mode (single replicate values) ([4]; Log[Drug] -10.52): 0.1347 and 0.5117 and -4.0638 and -13.472 and -7.0659 and -13.7571 and -9.427 and -7.368 and -17.0465; β-arrestin2 recruitment response, agonist mode (single replicate values) ([4]; Log[Drug] -11): 7.882 and 2.36 and 5.579 and -8.103 and -1.831 and -9.017 and -8.127 and -1.8482 and -12.9803; β-arrestin2 recruitment response, replicate points of concentration-response curve ([5]; Log[Drug] -6): 0.6179; β-arrestin2 recruitment response, replicate points of concentration-response curve ([5]; Log[Drug] -6.52): 2.255 and 6.005 and -0.9593 and 0.5245 and -8.852 and -1.095 and 3.803 and 14.7296 and 1.5314; β-arrestin2 recruitment response, replicate points of concentration-response curve ([5]; Log[Drug] -7): 2.737 and -0.8021 and 0.3035 and -9.828 and -11.4107 and -3.313 and -1.206 and -3.514 and 45.5574; β-arrestin2 recruitment response, replicate points of concentration-response curve ([5]; Log[Drug] -7.52): 9.506 and 14.1402 and 17.6522 and -10.6377 and -5.208 and -2.549 and -1.295 and 2.071 and -1.605; β-arrestin2 recruitment response, replicate points of concentration-response curve ([5]; Log[Drug] -8): -0.645 and 1.165 and 0.2927 and -3.147 and 13.2695 and -12.1837 and -4.853 and 0.614 and -2.656; β-arrestin2 recruitment response, replicate points of concentration-response curve ([5]; Log[Drug] -8.52): -0.1626 and 4.9103 and -0.3035 and -9.285 and -10.3985 and -13.5456 and -5.689 and -5.904 and -4.713; β-arrestin2 recruitment response, replicate points of concentration-response curve ([5]; Log[Drug] -9): 5.962 and 3.36 and 0.775 and -2.264 and 6.672 and -11.4475 and -4.468 and 0.05179 and -2.649; β-arrestin2 recruitment response, replicate points of concentration-response curve ([5]; Log[Drug] -9.52): 0.7804 and -0.09756 and 1.653 and -9.57 and -13.2511 and -10.2512 and -0.9174 and -5.319 and -2.049; β-arrestin2 recruitment response, replicate points of concentration-response curve ([5]; Log[Drug] -10): -1.848 and 4.038 and 4.894 and -4.813 and -13.9689 and -2.9539 and 13.3388 and -5.371 and 2.353; β-arrestin2 recruitment response, replicate points of concentration-response curve ([5]; Log[Drug] -10.52): 1.577 and 1.859 and -0.3143 and -10.7113 and -10.242 and -8.8801 and -0.04439 and -4.439 and 2.981; β-arrestin2 recruitment response, replicate points of concentration-response curve ([5]; Log[Drug] -11): -1.149 and 2.054 and 0.1355 and -7.003 and -10.3432 and 9.598 and -3.27 and -3.4993 and -5.608; β-arrestin2 recruitment response, replicate points of concentration-response curve ([5]; Log[Drug] -11.52): -1.182 and 12.7148 and 3.068 and 1.2699 and -8.8985 and -8.135 and 6.251 and -5.941 and -5.608; concentration at which the receptor is activated ([6]; 5HT7A, agonist activity only at high concentrations): over 1 μM; β-arrestin2 recruitment response, replicate points of concentration-response curve ([6]; Log[Drug] -8.52): -12.5786 and -8.044 and 1.071 and -9.7421 and 32.4405 and 49.1467 and -14.2149 and 16.5223 and -11.2331 and 4.354 and 35.2448 and 10.2419; β-arrestin2 recruitment response, replicate points of concentration-response curve ([6]; Log[Drug] -9): 10.8788 and 4.459 and -14.1005 and -17.9842 and -16.1246 and -21.1449 and -7.127 and 62.1289 and 35.3983 and -32.9912 and 26.9263 and -33.8761
